Like-named read-outs stand apart in the source and are kept apart here.
System: L929 cells
Experiment: TNF High Throughput Screen (TNF-α driven apoptosis assay)
Format: cell-based, mouse
Conditions: human TNF-α + actinomycin D; for inhibition at 1 µM: compound at 1 μM, read-out: TNFα % Inh. @ 1 μM; for IC50: read-out: TNFα IC50
From the text: Description of Table V: The results shown in Table V were obtained using the TNF-α assays performed as described in the protocols entitled “Method for TNF High Throughput Screen” and “Method for VCAM High Throughput Screen”, which are detailed below. These assays measure a cellular response to TNF-α stimulation, and the data published in the table are expressed as percentage inhibitions. Percentage inhibition is computed on a scale of 0 to 100% where 0 percent inhibition means the compound has no effect in the assay (the response is indistinguishable from TNF-α treatment alone), and 100% inhibition means that when the compound is present at the stated concentration, the response in the assay is the same as if TNF-α were not added. These two assays measure two different outcomes of TNF-α treatment, cell death and Vascular Cell Adhesion Molecule (VCAM) expression, and capture two of TNF-α's many biological effects. TNF-α induced apoptosis is a mechanism by which TNF-α production during immune/inflammatory responses can lead to direct cellular and tissue damage. TNF-α VCAM expression in endothelial cells is a response that allows leukocytes to leave the blood and enter a site of immune/inflammatory response. Both of these activities could lead to pathology in immune/inflammatory diseases. In the first column of the table, the percentage inhibition of the TNF-α driven apoptosis assay when the compounds are tested at 1 μM concentration is presented. The second column in the table lists the IC50 for the compound, a standard measure using a dilution series in the assay, and fitting a sigmoidal curve to the resulting dose-response curve. The IC50 is the concentration (derived analytically from the sigmoidal function) at which the compound would inhibit 50% of the response in the assay. The third and fourth column list the corresponding analysis for the TNF-α driven VCAM assay. In Table VI, data corresponding to the data in column 1 of Table V is shown, with human cells replacing the mouse cells used in the high throughput screen. […] As a consequence, the compounds will have use in treating more than one TNF-α mediated condition, and may be selected according to the manner in which the condition manifests. This corresponds to the use of these compounds in the treatment of human disease.
TNF High Throughput Screen.
• 1. Plate 4×10^4 L929 cells in 100 μl of complete EMEM in Costar 96 well plates in PM. • 2. The next day, pretreat with compound, inhibitor and control vehicle for 2 hours. • 3. After 2 hours pretreatment, add 10 μl 5 ng/ml human TNF-α and actinomycin D (40 μg/ml final concentration). • 4. Incubate overnight. • 5. In AM, remove supernatant. • 6. Wash on a plate washer (0.9% NaCl). • 7. Add 100 μl Crystal Violet 0.1% in 20% ETOH. • 8. Incubate at RT for 10 minutes. • 9. Wash on plate washer. • 10. Air dry wells at 37° C. • 11. Add 100 μl of methanol to each well. • 12. Shake plates on orbital shaker and read at 595 nm on plate reader. VCAM High Throughput Screen: Protocol: • 1. Plate Primary human umbilical vein endothelial cells at 1.8×10^4 cells/well in a 96-well tissue culture plate. • 2. Return Plates to 37° C. incubator for 48-72 hours before assay. • 3. On assay day, aspirate wells and add 1804, of endothelial growth cell medium (EGM) to each well. • 4. Add Compound to each well. • 5. Shake plates for 3 minutes. • 6. Incubate plate for 1 hour at 37° C. • 7. Add Tumor Necrosis Factor (TNF) at 1.0 ng/ml final concentration. • 8. Shake plates for 3 minutes. • 9. Incubate plate for 2 hours at 37° C. • 10. Remove plate from incubator and wash plate 3 times with phosphate buffered saline (PBS) using a plate washer. • 11. Add anti-VCAM antibody at 0.5 μg/ml final concentration. • 12. Incubate at 4° C. overnight. • 13. Wash 3 times with PBS on plate washer. • 14. Add goat anti-mouse horseradish peroxidase conjugate. • 15. Incubate at room temperature for one hour. • 16. Wash 3 times with PBS on plate washer. • 17. […]

N#Cc1cccc(C(C(=O)NC(Cc2ccccc2)c2ccccc2)N(CCc2c[nH]cn2)C(=O)c2ccccc2C(=O)c2ccc(Cl)cc2)c1 (centres unmarked) [Compound 64]
inhibition at 1 µM (Mus musculus): 63%

N#Cc1cccc(C(C(=O)NCCc2ccccc2)N(CCc2c[nH]cn2)C(=O)c2ccccc2C(=O)c2ccccc2)c1 (centres unmarked) [Compound 1]
IC50 (Mus musculus): 2.64 µM

CCCCc1ccc(C(=O)N(CCc2c[nH]cn2)C(C(=O)NCCC(c2ccccc2)c2ccccc2)c2ccccc2)cc1 (centres unmarked) [Compound 65]
inhibition at 1 µM (Mus musculus): 52%

N#Cc1cccc(C(C(=O)NC(Cc2ccccc2)c2ccccc2)N(CCc2c[nH]cn2)C(=O)c2ccccc2C(=O)c2ccccc2)c1 (centres unmarked) [Compound 3]
IC50 (Mus musculus): 1.29 µM

O=C(c1ccccc1)c1ccccc1C(=O)N(CCc1c[nH]cn1)[C@H](Cc1ccccc1)C(=O)NCC(c1ccccc1)c1ccccc1 [Compound 47, 2-Benzoyl-N-[(1′R)-1′(2,2′-diphenyl-ethylcarbamoyl)-2′-phenyl-ethyl]-N-[2-(1H-imidazol-4-yl)-ethyl]-benzamide]
IC50: 5.58 µM

O=C(c1ccccc1)c1ccccc1C(=O)N(CCc1c[nH]cn1)C(Cc1cccc(C(F)(F)F)c1)C(=O)NCC(c1ccccc1)c1ccccc1 (centres unmarked) [Compound 28]
IC50 (Mus musculus): 5.27 µM

COc1ccc(Oc2cccc(C(C(=O)NCc3cc(OC)c(OC)c(OC)c3)N(C(=O)CC(c3ccccc3)c3ccccc3)c3ccccc3C(N)=O)c2)cc1 (centres unmarked) [Compound 57]
inhibition at 1 µM (Mus musculus): 56%

N#Cc1cccc(C(C(=O)NCCC(c2ccccc2)c2ccccc2)N(CCc2c[nH]cn2)C(=O)c2ccccc2C(=O)c2ccc(Cl)cc2)c1 (centres unmarked) [Compound 91]
inhibition at 1 µM (Mus musculus): 71%

Cc1cccc(C(C(=O)NCC(c2ccccc2)c2ccccc2)N(CCc2c[nH]cn2)C(=O)c2ccccc2C(=O)c2ccccc2)c1 (centres unmarked) [Compound 7]
IC50 (Mus musculus): 4.01 µM

N#Cc1cccc(C(C(=O)NCC(c2ccccc2)c2ccccc2)N(CCc2c[nH]cn2)C(=O)c2cnc3ccccc3n2)c1 (centres unmarked) [Compound 80]
inhibition at 1 µM (Mus musculus): 53%

[N-]=[N+]=Nc1cccc(C(C(=O)NCC(c2ccccc2)c2ccccc2)N(CCc2c[nH]cn2)C(=O)c2ccccc2C(=O)c2ccccc2)c1 (centres unmarked) [Compound 40]
IC50 (Mus musculus): 1.74 µM

COc1ccc(CCNC(=O)C(c2cccc(C#N)c2)N(CCc2c[nH]cn2)C(=O)CCC(C)=O)cc1 (centres unmarked) [Compound 73]
inhibition at 1 µM (Mus musculus): 76%

N#Cc1cccc(C(C(=O)NCC(c2ccccc2)c2ccccc2)N(CCc2c[nH]cn2)C(=O)c2ccccc2-c2ccco2)c1 (centres unmarked) [Compound 22]
IC50 (Mus musculus): 3.85 µM

O=C(c1ccccc1)c1ccccc1C(=O)N(CCc1c[nH]cn1)C(Cc1cccc(Cl)c1)C(=O)NCC(c1ccccc1)c1ccccc1 (centres unmarked) [Compound 31]
IC50 (Mus musculus): 3.35 µM

N#Cc1cccc(C(C(=O)NCC(c2ccccc2)c2ccccn2)N(CCc2c[nH]cn2)C(=O)c2ccccc2C(=O)c2ccccc2)c1 (centres unmarked) [Compound 39]
IC50 (Mus musculus): 1.32 µM

N#Cc1cccc(C(C(=O)NCC(c2ccccc2)c2ccccc2)N(CCn2ccnc2)C(=O)c2ccccc2C(=O)c2ccccc2)c1 (centres unmarked) [Compound 21]
IC50 (Mus musculus): 0.913 µM

N#Cc1cccc(C(C(=O)NC(c2ccccc2)c2ccccc2)N(CCc2c[nH]cn2)C(=O)c2ccccc2Oc2ccccc2)c1 (centres unmarked) [Compound 89]
inhibition at 1 µM (Mus musculus): 56%

COc1ccc(CCNC(=O)C(c2cccc(C#N)c2)N(CCc2c[nH]cn2)C(=O)c2ccccc2C(=O)c2ccccc2)cc1 (centres unmarked) [Compound 18]
IC50 (Mus musculus): 2.68 µM

O=C(c1ccccc1)c1ccccc1C(=O)N(CCc1c[nH]cn1)C(C(=O)NCC(c1ccccc1)c1ccccc1)c1cccc(C(F)(F)F)c1 (centres unmarked) [Compound 17]
IC50 (Mus musculus): 1.5 µM

CN(CC(c1ccccc1)c1ccccc1)C(=O)C(c1ccccc1)N(CCc1c[nH]cn1)C(=O)c1ccccc1C(=O)c1ccccc1 (centres unmarked) [Compound 26, 2-Benzoyl-N-{[(2,2-diphenyl-ethyl)-methyl-carbamoyl]-phenyl-methyl}-N-[2-(1H-imidazol-4-yl)-ethyl]-benzamide]
IC50 (Mus musculus): 3.36 µM

N#Cc1cccc(C(C(=O)NC(c2ccccc2)c2ccccc2)N(CCc2c[nH]cn2)C(=O)c2ccccc2-c2ccccc2)c1 (centres unmarked) [Compound 88]
inhibition at 1 µM (Mus musculus): 53%

N#Cc1cccc(C(C(=O)NCCC(c2ccccc2)c2ccccc2)N(CCc2c[nH]cn2)C(=O)Cc2ccc3ccccc3c2)c1 (centres unmarked) [Compound 67]
inhibition at 1 µM (Mus musculus): 52%

N#Cc1cccc(C(C(=O)NC(c2ccccc2)c2ccccc2)N(CCc2c[nH]cn2)C(=O)C(O)c2ccccc2)c1 (centres unmarked) [Compound 87]
inhibition at 1 µM (Mus musculus): 50%

COc1c(Sc2ccc(Cl)cc2)c(C)nn1-c1nccc(-c2ccccn2)n1 [Compound 148, 2-[4-(4-Chloro-phenylsulfanyl)-5-methoxy-3-methyl-pyrazol-1-yl]-4-pyridin-2-yl-pyrimidine]
IC50 (Mus musculus): 32.1 µM

O=C(NCC(c1ccccc1)c1ccccc1)C(c1ccccc1)N(CCc1c[nH]cn1)C(=O)c1cccc2c1-c1ccccc1C2 (centres unmarked) [Compound 58]
inhibition at 1 µM (Mus musculus): 50%

N#Cc1cccc(C(C(=O)NCC(c2ccccc2)c2ccccc2)N(CCc2c[nH]cn2)C(=O)c2ccccc2C(=O)c2ccc(Cl)cc2)c1 (centres unmarked) [Compound 20]
IC50 (Mus musculus): 0.299 µM

COc1ccc(CC(C(=O)NCC(c2ccccc2)c2ccccc2)N(CCc2c[nH]cn2)C(=O)c2ccccc2C(=O)c2ccccc2)cc1 (centres unmarked) [Compound 35]
IC50 (Mus musculus): 2.64 µM

O=C(c1ccccc1)c1ccccc1C(=O)N(CCc1c[nH]cn1)C(Cc1ccccc1Cl)C(=O)NCC(c1ccccc1)c1ccccc1 (centres unmarked) [Compound 30]
IC50 (Mus musculus): 2.36 µM

N#Cc1cccc(C(C(=O)NCC(c2ccccc2)c2ccccc2)N(CCc2c[nH]cn2)C(=O)CCCc2c[nH]c3ccccc23)c1 (centres unmarked) [Compound 84]
inhibition at 1 µM (Mus musculus): 52%

N#Cc1cccc(C(C(=O)NC(c2ccccc2)c2ccccc2)N(CCc2c[nH]cn2)C(=O)c2cccs2)c1 (centres unmarked) [Compound 90]
inhibition at 1 µM (Mus musculus): 51%

N#Cc1cccc(C(C(=O)NCC(C2CCCCC2)C2CCCCC2)N(CCc2c[nH]cn2)C(=O)c2ccccc2C(=O)c2ccccc2)c1 (centres unmarked) [Compound 23]
IC50 (Mus musculus): 2.58 µM

COc1cccc(C(=O)N(CCc2c[nH]cn2)C(C(=O)NCC(c2ccccc2)c2ccccc2)c2cccc(C#N)c2)c1 (centres unmarked) [Compound 86]
inhibition at 1 µM (Mus musculus): 53%

N#Cc1cccc(C(C(=O)NCC(c2ccccc2)c2ccccc2)N(CCc2c[nH]cn2)C(=O)c2ccccc2Cc2ccccc2)c1 (centres unmarked) [Compound 10]
IC50 (Mus musculus): 3.68 µM

COc1ccc(CCNC(=O)C(c2cccc(C#N)c2)N(CCc2c[nH]cn2)C(=O)c2cccc(Cl)c2)cc1 (centres unmarked) [Compound 79]
inhibition at 1 µM (Mus musculus): 62%

N#Cc1cccc(C(C(=O)NCCC(c2ccccc2)c2ccccc2)N(CCc2c[nH]cn2)C(=O)c2ccccc2C(=O)c2ccccc2)c1 (centres unmarked) [Compound 4]
IC50 (Mus musculus): 0.941 µM

COc1ccccc1CC(C(=O)NCC(c1ccccc1)c1ccccc1)N(CCc1c[nH]cn1)C(=O)c1ccccc1C(=O)c1ccccc1 (centres unmarked) [Compound 33]
IC50 (Mus musculus): 2.35 µM

Cc1ccccc1C(C(=O)NCC(c1ccccc1)c1ccccc1)N(CCc1c[nH]cn1)C(=O)c1ccccc1C(=O)c1ccccc1 (centres unmarked) [Compound 6]
IC50 (Mus musculus): 1.06 µM

N#Cc1cccc(C(C(=O)NCCC(c2ccccc2)c2ccccc2)N(CCc2c[nH]cn2)C(=O)c2cccc3ccccc23)c1 (centres unmarked) [Compound 68]
inhibition at 1 µM (Mus musculus): 57%

COc1ccc(CCNC(=O)C(c2cccc(C#N)c2)N(CCc2c[nH]cn2)C(=O)Cc2c[nH]c3ccccc23)cc1 (centres unmarked) [Compound 77]
inhibition at 1 µM (Mus musculus): 54%

COc1cccc(C(=O)N(CCc2c[nH]cn2)C(C(=O)NCCC(c2ccccc2)c2ccccc2)c2cccc(C#N)c2)c1OC (centres unmarked) [Compound 66]
inhibition at 1 µM (Mus musculus): 51%

N#Cc1cccc(C(C(=O)NCC(c2ccccc2)C2CCCC2)N(CCc2c[nH]cn2)C(=O)c2ccccc2C(=O)c2ccccc2)c1 (centres unmarked) [Compound 25]
IC50 (Mus musculus): 1.58 µM

— patent US9579325B2, “Modulators of TNF-α signaling” (Genzyme Corporation, priority 2000, dated 2017)
